From ChEMBL document CHEMBL5053558, “Novel Indole Compounds as TEAD Inhibitors for Treating Cancer” (ACS Med Chem Lett, 2021)

Experiment: Inhibition of TEAD in human tumour cells assessed as YAP1/TAZ-TEAD modulation incubated for 48 hrs by Bright-Glo luciferase assay
Type: cell-based
Settings: Tumor Cell line

Row | SMILES | IC50 [nM]
1 | C=CC(=O)Nc1ccc2c(c1)c(C)cn2-c1ccc(C(F)(F)F)cc1 | 9
2 | C=CC(=O)Nc1ccc2c(c1)c(COC)cn2-c1ccc(C(F)(F)F)cc1 | 15
3 | C=CC(=O)Nc1ccc2c(ccn2-c2ccc(C(F)(F)F)cc2)c1 | 8
4 | C=CC(=O)Nc1ccc2c(ccn2Cc2ccc(-c3cccc(C(F)(F)F)c3)cc2)c1 | 20
5 | C=CC(=O)Nc1cc2ccn(Cc3cccc(C(F)(F)F)c3)c2cc1F | 18
6 | C=CC(=O)Nc1ccc2c(c1)cc(C)n2-c1ccc(C(F)(F)F)cc1 | 12
